# Assays:
# HSPCs = assay: Colony forming units (CFU) assay and genotyping of CCR5 gene targeted HSPCs; type: cell-based, human; details: for colonies with bi-allelic HDR knock-in: untreated 9%
# Procedure: Colony forming units assay and genotyping of clones. For colony forming units (CFU) assay, 250 to 500 HSPCs were plated in SmartDish 6-well plates ([…] Technologies, cat: 27370) containing MethoCult H4434 Classic ([…] Technologies, cat: 04444). After 14 days, colonies were counted and scored using STEMvision automated counter ([…] Technologies) to determine the number of BFU-E, CFU-M, CFU-GM, and CFU-GEMM colonies. To determine the ratio of monoallelic vs biallelic integration, individual colonies of each type were picked and genomic DNA was extracted with QE. ddPCR was used to determine the clones with mono- vs bi-allelic integration as mentioned. WT and INDEL frequencies in the clones were determined using ICE analysis.
# T cells = assay: Viable cell count of CCR5 gene targeted T cells; type: cell-based, human
# Procedure: (FIG. 34d). Next, we tested the effect of compound treatment when titrating down the AAV6 donor amounts for gene targeting at the CCR5 locus. […] For this, we assessed the CD19-CAR knock-in at the TRAC gene locus in T cells using a previously reported gene editing strategy^87 (FIG. 14c).
# Cell viability measurement. MTT assay was used for measuring the gene edited PSC viability. […] After this incubation, MTT was removed, and cells were lysed using 100 μl of lysis buffer (0.1N HCl and 0.5% SDS in isopropanol). After lysis, absorbance was measured at 570 nm with 650 nm as the reference using a SpectraMax M3 plate reader (Molecular devices). The absorbance values were used to calculate the cell viability of gene edited cells as a percentage relative to the mock cells. […] Viable cell counts were represented as percentage relative to the mock or untreated cells as indicated.
smiles,measurement,setting,value
"Cc1cc2ncnn2cc1Nc1ncc2c(n1)n(C1CCOCC1)c(=O)n2C [AZD7648, 7-methyl-2-((7-methyl-[1,2,4]triazolo[l,5-a]pyridin-6-yl)amino)-9-(tetrahydro-2H-pyran-4-yl)-7,9-dihydro-8H-purin-8-one]",total colony number and colony type distribution,HSPCs; 0.5 μM,did not cause further decrease in total colony number nor a change in the colony type distribution
same,increase of colonies with bi-allelic HDR knock-in,"HSPCs; BFU-E and CFU-GM, 0.5 μM",more than 7 fold
same,colonies with bi-allelic HDR knock-in,HSPCs; BFU-E,67%
same,colonies with bi-allelic HDR knock-in,HSPCs; CFU-GM,78%
same,viable cell count,"T cells; 0.5 μM, different AAV6 MOIs",very little drop in viable cell count
same,viable cell count vs mock and untreated controls,"T cells; 72 h post-gene targeting, different concentrations",minimal drop in viable cell count

# Reference: US20250305004A1, “ENHANCING GENE TARGETING EFFICIENCY IN HUMAN CELLS WITH DNA-PK INHIBITOR TREATMENT” (The Board of Trustees of the Leland Stanford Junior …, priority 2022, published 2025)
